Drawing on patent publication US11780849B2, “Imino sulfanone inhibitors of ENPP1” (Volastra Therapeutics, Inc., priority 2020, dated 2023), this text covers IC50 and Ki for 33 compounds.

The target in test [1] is T1, ENPP-1 ECD (Homo sapiens (Human), UniProt P22413). Briefly: Assay 1: inhibition of ENPP1 hydrolysis of 2′,3′-cGAMP (AMP-Glo, […] enzyme).
Procedure: Assay 1: Test compounds were plated in a 3× dilution scheme in a 384 well plate. […] AMP Detection solution (100 μL) was added to each well, the plate centrifuged and incubated for 60 min.
Test [2] concerns the target T1, ENPP-1 ECD. The test is described as follows: Assay 2: inhibition of ENPP1 hydrolysis of 2′,3′-cGAMP (AMP-Glo, […] enzyme). Particulars: inhibition of ENPP1 hydrolysis of 2′,3′-cGAMP, no unit in Table 18 (Table 17 legend for this assay uses nM).
Procedure: Assay 2: Compared to the conditions in Assay 1, this assay has a larger dynamic range and ensures the system is under steady-state conditions by reducing the enzyme concentration in the assay.
Test compounds were plated in a 3× dilution scheme in a 384 well plate. […] AMP Detection solution (10 μL) was added to each well, the plate centrifuged and incubated for 60 min.
Setting [3] is: Assay 1 (IC50), inhibition of ENPP1 hydrolysis of 2′,3′-cGAMP, no unit in Table 18 (Table 17 legend for this assay uses nM).
The mark [4] stands for this setting: read-out: Assay 1 (IC50), ENPP1 hydrolysis of 2′,3′-cGAMP, AMP-Glo.
[5] abbreviates: Assay 1 (IC50), ENPP1 hydrolysis of 2′,3′-cGAMP, AMP-Glo.

Structures are written as SMILES. Where two headings read alike, the source gives them in different places.

T1 sequence (P22413 98-925): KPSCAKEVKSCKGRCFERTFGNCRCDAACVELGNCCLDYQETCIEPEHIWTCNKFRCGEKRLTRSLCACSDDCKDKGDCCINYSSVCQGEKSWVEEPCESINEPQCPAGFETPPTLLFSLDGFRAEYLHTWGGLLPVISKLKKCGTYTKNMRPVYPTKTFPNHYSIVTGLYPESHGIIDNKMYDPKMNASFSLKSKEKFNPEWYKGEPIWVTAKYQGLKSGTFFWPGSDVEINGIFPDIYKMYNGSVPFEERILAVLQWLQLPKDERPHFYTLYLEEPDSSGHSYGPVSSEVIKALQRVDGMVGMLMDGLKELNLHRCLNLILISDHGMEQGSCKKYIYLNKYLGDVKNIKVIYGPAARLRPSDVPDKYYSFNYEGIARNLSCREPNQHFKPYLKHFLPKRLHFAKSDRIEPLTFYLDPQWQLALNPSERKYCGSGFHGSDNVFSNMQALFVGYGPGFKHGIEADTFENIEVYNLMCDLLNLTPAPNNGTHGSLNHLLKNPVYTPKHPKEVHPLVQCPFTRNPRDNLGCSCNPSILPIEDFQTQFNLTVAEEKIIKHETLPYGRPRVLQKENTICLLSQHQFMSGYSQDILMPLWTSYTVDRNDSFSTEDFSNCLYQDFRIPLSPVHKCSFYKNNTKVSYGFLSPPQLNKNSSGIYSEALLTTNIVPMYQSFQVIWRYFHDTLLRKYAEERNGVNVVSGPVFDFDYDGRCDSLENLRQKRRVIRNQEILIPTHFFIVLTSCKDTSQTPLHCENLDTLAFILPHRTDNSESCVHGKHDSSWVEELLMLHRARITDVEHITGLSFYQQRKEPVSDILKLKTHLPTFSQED

For orientation: IC50 means the concentration at which inhibition is half-maximal. Take `COc1ccc2c(C(=O)N3CCS(=N)(=O)CC3)ccnc2c1` [Compound 6, 1-imino-4-(7-methoxyquinoline-4-carbonyl)-1λ^6-thiomorpholin-1-one]: the half-inhibitory concentration (IC50) at ENPP-1 ECD [1] (setting [3]) is over 30000 nM; on ENPP-1 ECD [1] (setting [4]), over 1000 nM.

As for `COc1ccc2c(CC(=O)N3CCS(=N)(=O)CC3)ccnc2c1` [Compound 26, 1-imino-4-[2-(7-methoxyquinolin-4-yl)acetyl]-1λ^6-thiomorpholin-1-one], the half-maximal inhibitory concentration (IC50) at ENPP-1 ECD [1] (setting [3]) is 8800 nM; on ENPP-1 ECD [1] (setting [4]), over 1000 nM.

For the compound `COc1ccc2ncc(C#N)c(Oc3ccc(S(C)(=N)=O)cc3)c2c1` (stereo not shown) [Compound 47, 6-methoxy-4-(4-(S-methylsulfonimidoyl)phenoxy)quinoline-3-carbonitrile], the IC50 against ENPP-1 ECD [1] (setting [5]) is 10 to 1000 nM; at ENPP-1 ECD [1] (setting [3]) it was 180 nM.

In the case of `Cc1ccc2ncc(C#N)c(Oc3ccc(S(C)(=N)=O)cc3)c2c1` (stereo not shown) [Compound 50, 6-methyl-4-(4-(S-methylsulfonimidoyl)phenoxy)quinoline-3-carbonitrile], the IC50 against ENPP-1 ECD [1] (setting [3]) is 2600 nM; on ENPP-1 ECD [1] (setting [4]) it was over 1000 nM.

As for `COc1cccc2c(Oc3ccc(S(C)(=N)=O)cc3)c(C#N)cnc12` (stereo not shown) [Compound 58, 8-methoxy-4-(4-(S-methylsulfonimidoyl)phenoxy)quinoline-3-carbonitrile], the figures for the IC50 at ENPP-1 ECD [1] (setting [5]) and against ENPP-1 ECD [1] (setting [3]) were 10 to 1000 nM and 51 nM, respectively.

For `COc1cnc2c(Oc3ccc(S(C)(=N)=O)cc3)ccnc2c1` (stereo not shown) [Compound 76, imino(4-((7-methoxy-1,5-naphthyridin-4-yl)oxy)phenyl)(methyl)-λ^6-sulfanone], the IC50 is 23000 nM against ENPP-1 ECD [1] (setting [3]) and over 1000 nM at ENPP-1 ECD [1] (setting [4]).

Turning to `COc1cc2nccc(Oc3ccc(S(C)(=N)=O)cc3)c2cn1` (stereo not shown) [Compound 77, imino(4-((7-methoxy-1,6-naphthyridin-4-yl)oxy)phenyl)(methyl)-λ^6-sulfanone], the IC50 at ENPP-1 ECD [1] (setting [5]) was 10 to 1000 nM; on ENPP-1 ECD [1] (setting [3]), 57 nM.

With `COc1ccc2c(-c3ccc(CS(C)(=N)=O)cc3)ccnc2c1` (stereo not shown) [Compound 88, imino(4-(7-methoxyquinolin-4-yl)benzyl)(methyl)-λ^6-sulfanone], the IC50 was 10 to 1000 nM on ENPP-1 ECD [1] (setting [5]) and 920 nM against ENPP-1 ECD [1] (setting [3]).

Consider `COc1ccc2c(Oc3ccc(S(C)(=N)=O)cc3)ccnc2c1F` (stereo not shown) [Compound 128, {4-[(8-fluoro-7-methoxyquinolin-4-yl)oxy]phenyl}(imino)methyl-λ^6-sulfanone], for which the concentration for half-maximal inhibition (IC50) was 10 to 1000 nM at ENPP-1 ECD [1] (setting [5]) and 310 nM against ENPP-1 ECD [1] (setting [3]).

As for `COc1ccc2nccc(Oc3ccc(S(C)(=N)=O)cc3)c2n1` (stereo not shown) [Compound 130, imino({4-[(6-methoxy-1,5-naphthyridin-4-yl)oxy]phenyl})methyl-λ^6-sulfanone], the IC50 against ENPP-1 ECD [1] (setting [3]) was 8100 nM.

Consider `CS(=N)(=O)c1ccc(Oc2c(C#N)cnc3cc(F)ccc23)cc1` (stereo not shown) [Compound 131, 7-fluoro-4-{4-[imino(methyl)oxo-λ^6-sulfanyl]phenoxy}quinoline-3-carbonitrile], for which the half-maximal inhibitory concentration (IC50) is over 30000 nM at ENPP-1 ECD [1] (setting [3]) and over 1000 nM at ENPP-1 ECD [1] (setting [4]).

By Ki is commonly meant the dissociation constant of the complex between target and ligand, obtained from inhibition or displacement. In the case of `COc1cc2nccc(N3CCC4(CC3)CCN([S@](C)(=N)=O)C4)c2cc1F` [Compound 205a], the Ki at ENPP-1 ECD [2] (read-out: Assay 2 (KI)) came to 5 nM.

At ENPP-1 ECD [2] (Assay 2 (KI)), `COc1cc2ncnc(N3CC4(CCN(S(C)(=N)=O)CC4)C3)c2cc1OC` (stereo not shown) [Compound 206, [2-(6,7-dimethoxyquinazolin-4-yl)-2,7-diazaspiro[3.5]nonan-7-yl](imino)methyl-λ^6-sulfanone] came in with a Ki of 17 nM.

As for `COc1cc2ncnc(N3CCC4(CC3)CCN(S(C)(=N)=O)CC4)c2cc1OC` (stereo not shown) [Compound 209, [9-(6,7-dimethoxyquinazolin-4-yl)-3,9-diazaspiro[5.5]undecan-3-yl](imino)methyl-λ^6-sulfanone], the Ki at ENPP-1 ECD [2] (Assay 2 (KI)) was found to be 17 nM.

As to `COc1cc2nncc(N3CCC4(CC3)CCN([S@@](C)(=N)=O)C4)c2cc1OC` [Compound 211b], the Ki on ENPP-1 ECD [2] (read-out: Assay 2 (KI)) is 0.5 nM.

For `COc1cccc2c(N3CCC4(CC3)CCN4S(C)(=N)=O)ncnc12` (stereo not shown) [Compound 214, imino[7-(8-methoxyquinazolin-4-yl)-1,7-diazaspiro[3.5]nonan-1-yl]methyl-λ^6-sulfanone], at ENPP-1 ECD [2] (Assay 2 (KI)), the affinity corresponds to a Ki of 110 nM.

Take `COc1cccc2c(N3CCC4(CC3)CCN(S(C)(=N)=O)C4)ncnc12` (stereo not shown) [Compound 215, imino[8-(8-methoxyquinazolin-4-yl)-2,8-diazaspiro[4.5]decan-2-yl]methyl-λ^6-sulfanone]: the inhibition constant Ki at ENPP-1 ECD [2] (Assay 2 (KI)) was found to be 3.8 nM.

`COc1cc2ncnc(N3CCC4(CCN(S(C)(=N)=O)C4)C3)c2cc1OC` (stereo not shown) [Compound 216, [7-(6,7-dimethoxyquinazolin-4-yl)-2,7-diazaspiro[4.4]nonan-2-yl](imino)methyl-λ^6-sulfanone] yielded an inhibition constant (Ki) on ENPP-1 ECD [2] (Assay 2 (KI)) of 5.5 nM.

Regarding `COc1cc2nccc(N3CCC4(CC3)CCN([S@](=N)(=O)C3CC3)C4)c2cc1F` [Compound 218b], at ENPP-1 ECD [2] (read-out: Assay 2 (KI)), the inhibitory constant (Ki) is 1.5 nM.

The compound `COc1cc2nncc(N3CCC4(CC3)CCN(S(C)(=N)=O)C4)c2cc1Cl` (stereo not shown) [Compound 219, [8-(6-chloro-7-methoxycinnolin-4-yl)-2,8-diazaspiro[4.5]decan-2-yl](imino)methyl-λ^6-sulfanone] returned a Ki at ENPP-1 ECD [2] (Assay 2 (KI)) of 0.091 nM.

With `COc1cc2nncc(N3CCC4(CC3)CCN([S@@](C)(=N)=O)C4)c2cc1Cl` [Compound 219b], the Ki on ENPP-1 ECD [2] (read-out: Assay 2 (KI)) worked out at 2 nM.

With `COc1cccc2c(N3CC4(CCN([S@](C)(=N)=O)C4)C3)c(C#N)cnc12` [Compound 222b], the Ki on ENPP-1 ECD [2] (read-out: Assay 2 (KI)) was 1.3 nM.

As for `COc1cc2nccc(OC[C@@H]3CCN([S@@](C)(=N)=O)C3)c2cc1F` [Compound 229a], the inhibition constant Ki at ENPP-1 ECD [2] (read-out: Assay 2 (KI)) was found to be 39 nM.

Turning to `COc1cc2nccc(OC[C@H]3CCN([S@](C)(=N)=O)C3)c2cc1F` [Compound 230a], the Ki at ENPP-1 ECD [2] (read-out: Assay 2 (KI)) worked out at 11 nM.

In turn, `COc1ccc2c(COc3cccc(S(C)(=N)=O)c3)ccnc2c1` (stereo not shown) [Compound 232, imino({3-[(7-methoxyquinolin-4-yl)methoxy]phenyl})methyl-λ^6-sulfanone] returned a Ki on ENPP-1 ECD [2] (Assay 2 (KI)) of 3.3 nM.

For the compound `COc1ccc2c(-n3cc4c(n3)CCN(S(C)(=N)=O)C4)ccnc2c1` (stereo not shown) [Compound 233, imino[2-(7-methoxyquinolin-4-yl)-2H,4H,5H,6H,7H-pyrazolo[4,3-c]pyridin-5-yl]methyl-λ^6-sulfanone], the Ki at ENPP-1 ECD [2] (Assay 2 (KI)) was over 500 nM.

In turn, `COc1ccc2c(-n3cc(CCS(C)(=N)=O)cn3)ccnc2c1` (stereo not shown) [Compound 234, imino({2-[1-(7-methoxyquinolin-4-yl)-1H-pyrazol-4-yl]ethyl})methyl-λ^6-sulfanone] showed a Ki on ENPP-1 ECD [2] (Assay 2 (KI)) of over 500 nM.

For `COc1ccc2c(OC3CCN(S(C)(=N)=O)CC3)ccnc2c1` (stereo not shown) [Compound 235, imino({4-[(7-methoxyquinolin-4-yl)oxy]piperidin-1-yl})methyl-λ^6-sulfanone], the affinity on ENPP-1 ECD [2] (Assay 2 (KI)) corresponds to a Ki of 8 nM.

`COc1cc2ncnc(N3CC4(CC(C[S@@](C)(=N)=O)C4)C3)c2cc1OC` [Compound 237a]: at ENPP-1 ECD [2] (read-out: Assay 2 (KI)), the Ki was found to be 2.4 nM.

`COc1cccc2c(N3CC[C@H](C[S@](C)(=N)=O)C3)ncnc12` [Compound 238b]: the Ki at ENPP-1 ECD [2] (read-out: Assay 2 (KI)) was determined as 13 nM.

`COc1cccc2c(N3CC[C@@H](C[S@@](C)(=N)=O)C3)ncnc12` [Compound 239b]: the Ki on ENPP-1 ECD [2] (read-out: Assay 2 (KI)) was determined as 83 nM.

Consider `COc1ccc2c(O[C@H]3CC[C@H](S(C)(=N)=O)CC3)ccnc2c1` (stereo partly shown) [Compound 243, imino(methyl)[(1r,4r)-4-[(7-methoxyquinolin-4-yl)oxy]cyclohexyl]-λ^6-sulfanone], for which the inhibition constant Ki on ENPP-1 ECD [2] (Assay 2 (KI)) came out at 4.3 nM.

For `COc1cccc2c(N3CC=C(CS(C)(=N)=O)CC3)ncnc12` (stereo not shown) [Compound 246, imino({[1-(8-methoxyquinazolin-4-yl)-1,2,3,6-tetrahydropyridin-4-yl]methyl})methyl-λ^6-sulfanone], the Ki on ENPP-1 ECD [2] (Assay 2 (KI)) amounted to 19 nM.
